The values that follow come from ChEMBL document CHEMBL3991601, “The target landscape of clinical kinase drugs” (Science, 2017).

The source made the active and inactive calls. Cut-off read from the data, not from the text of the source, for most assays here: actives have a measured Kd and inactives only a lower limit. Bounds are passed on as bounds.

As usually defined, the Kd is a measure of binding affinity in units of concentration.

Test [1] has as its target MAP kinase-activated protein kinase 2 (Homo sapiens, UniProt P49137).
Test [2] concerns the target Elongation factor Tu, mitochondrial (Homo sapiens, UniProt P49411).
In test [3] the target is Protein-tyrosine kinase 6 (Homo sapiens, UniProt Q13882).
Test [4] concerns the target Chromodomain-helicase-DNA-binding protein 4 (Homo sapiens, UniProt Q14839).
The target of test [5] is T1, Serine/threonine-protein kinase TAO1 (Homo sapiens, UniProt Q7L7X3).
T1 sequence (Q7L7X3 whole entry): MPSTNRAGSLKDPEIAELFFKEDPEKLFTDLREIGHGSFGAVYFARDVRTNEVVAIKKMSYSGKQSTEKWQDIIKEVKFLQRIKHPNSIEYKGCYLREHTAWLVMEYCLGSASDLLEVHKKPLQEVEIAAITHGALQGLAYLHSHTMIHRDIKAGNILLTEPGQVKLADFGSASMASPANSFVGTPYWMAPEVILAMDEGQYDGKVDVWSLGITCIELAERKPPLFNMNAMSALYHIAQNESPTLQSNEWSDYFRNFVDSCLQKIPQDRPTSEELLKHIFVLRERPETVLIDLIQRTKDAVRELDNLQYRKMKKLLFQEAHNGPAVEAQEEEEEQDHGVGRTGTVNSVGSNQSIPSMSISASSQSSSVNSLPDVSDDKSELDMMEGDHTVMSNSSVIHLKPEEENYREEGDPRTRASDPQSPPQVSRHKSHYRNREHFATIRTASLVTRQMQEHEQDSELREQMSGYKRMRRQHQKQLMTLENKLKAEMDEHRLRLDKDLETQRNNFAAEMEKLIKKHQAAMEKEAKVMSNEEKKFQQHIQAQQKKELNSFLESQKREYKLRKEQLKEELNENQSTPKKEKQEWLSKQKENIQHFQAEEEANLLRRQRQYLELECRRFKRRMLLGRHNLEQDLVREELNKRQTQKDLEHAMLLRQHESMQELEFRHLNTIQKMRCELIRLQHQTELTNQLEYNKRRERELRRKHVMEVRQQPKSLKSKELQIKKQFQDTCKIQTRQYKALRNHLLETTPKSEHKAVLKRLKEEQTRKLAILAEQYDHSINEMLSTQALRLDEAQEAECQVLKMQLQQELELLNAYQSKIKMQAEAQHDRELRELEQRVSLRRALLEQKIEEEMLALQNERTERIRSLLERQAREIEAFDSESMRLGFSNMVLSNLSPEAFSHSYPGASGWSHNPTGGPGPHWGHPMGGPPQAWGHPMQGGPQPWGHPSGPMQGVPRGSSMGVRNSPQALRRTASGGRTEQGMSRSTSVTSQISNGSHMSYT

In test [6] the target is T2, Receptor-type tyrosine-protein kinase FLT3 (Homo sapiens, UniProt P36888).
T2 sequence (P36888 whole entry): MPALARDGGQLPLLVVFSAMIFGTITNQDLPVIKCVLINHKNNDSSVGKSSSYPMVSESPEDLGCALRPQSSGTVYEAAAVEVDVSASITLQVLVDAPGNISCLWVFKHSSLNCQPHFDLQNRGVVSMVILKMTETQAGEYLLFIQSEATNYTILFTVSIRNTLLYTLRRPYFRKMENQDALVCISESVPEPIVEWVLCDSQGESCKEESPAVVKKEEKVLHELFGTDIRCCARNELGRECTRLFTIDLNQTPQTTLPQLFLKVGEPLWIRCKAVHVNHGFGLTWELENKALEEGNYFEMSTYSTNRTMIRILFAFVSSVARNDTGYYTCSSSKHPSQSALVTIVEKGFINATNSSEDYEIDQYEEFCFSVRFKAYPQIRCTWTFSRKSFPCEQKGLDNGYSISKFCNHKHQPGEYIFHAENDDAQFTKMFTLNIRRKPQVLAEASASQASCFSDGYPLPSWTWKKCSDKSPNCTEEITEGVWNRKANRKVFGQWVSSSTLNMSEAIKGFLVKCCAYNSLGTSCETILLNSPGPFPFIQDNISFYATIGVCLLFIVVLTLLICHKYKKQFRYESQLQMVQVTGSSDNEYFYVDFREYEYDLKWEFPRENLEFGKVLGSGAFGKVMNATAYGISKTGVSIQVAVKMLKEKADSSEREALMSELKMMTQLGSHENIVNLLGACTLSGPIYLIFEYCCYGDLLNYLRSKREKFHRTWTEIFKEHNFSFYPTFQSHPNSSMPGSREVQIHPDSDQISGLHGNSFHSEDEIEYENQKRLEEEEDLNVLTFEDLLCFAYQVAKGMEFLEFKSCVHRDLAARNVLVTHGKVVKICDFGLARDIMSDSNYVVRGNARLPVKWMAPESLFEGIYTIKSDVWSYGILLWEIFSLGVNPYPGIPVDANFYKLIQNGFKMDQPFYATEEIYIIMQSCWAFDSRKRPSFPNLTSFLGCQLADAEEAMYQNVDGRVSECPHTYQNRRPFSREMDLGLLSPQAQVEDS

In test [7] the target is Interleukin-1 receptor-associated kinase 1 (Homo sapiens, UniProt P51617).
For test [8], the target named is T3, Probable ATP-dependent RNA helicase DDX6 (Homo sapiens, UniProt P26196).
T3 sequence (P26196 whole entry): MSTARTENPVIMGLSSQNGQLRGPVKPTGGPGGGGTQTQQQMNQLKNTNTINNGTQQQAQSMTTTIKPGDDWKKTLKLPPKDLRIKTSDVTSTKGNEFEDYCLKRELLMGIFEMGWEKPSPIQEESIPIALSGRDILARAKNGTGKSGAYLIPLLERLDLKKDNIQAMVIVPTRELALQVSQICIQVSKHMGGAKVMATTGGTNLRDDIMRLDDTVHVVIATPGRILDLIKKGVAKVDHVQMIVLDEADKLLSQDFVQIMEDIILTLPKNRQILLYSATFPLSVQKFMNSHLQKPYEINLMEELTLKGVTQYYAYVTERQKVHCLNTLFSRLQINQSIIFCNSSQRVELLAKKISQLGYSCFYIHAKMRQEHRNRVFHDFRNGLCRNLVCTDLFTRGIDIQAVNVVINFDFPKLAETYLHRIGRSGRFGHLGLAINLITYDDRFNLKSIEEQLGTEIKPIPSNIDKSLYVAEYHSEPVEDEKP
Note: in the data inactive means no Kd found up to 30 µM.

Chain of Protein-tyrosine kinase 6 (Q13882 whole entry): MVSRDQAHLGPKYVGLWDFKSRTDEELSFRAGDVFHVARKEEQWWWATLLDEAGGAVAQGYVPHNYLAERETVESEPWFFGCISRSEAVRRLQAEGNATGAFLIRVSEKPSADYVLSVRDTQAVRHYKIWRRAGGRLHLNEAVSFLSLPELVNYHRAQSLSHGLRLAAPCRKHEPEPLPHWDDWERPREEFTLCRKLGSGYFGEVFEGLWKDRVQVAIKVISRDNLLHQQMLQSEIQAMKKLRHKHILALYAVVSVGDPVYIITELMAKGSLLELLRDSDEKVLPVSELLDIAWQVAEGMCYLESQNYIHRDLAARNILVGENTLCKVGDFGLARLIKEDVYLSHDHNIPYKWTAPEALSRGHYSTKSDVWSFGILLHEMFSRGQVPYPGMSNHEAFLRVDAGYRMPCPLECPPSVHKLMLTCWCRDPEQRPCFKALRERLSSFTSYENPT
Chain of MAP kinase-activated protein kinase 2 (P49137 whole entry): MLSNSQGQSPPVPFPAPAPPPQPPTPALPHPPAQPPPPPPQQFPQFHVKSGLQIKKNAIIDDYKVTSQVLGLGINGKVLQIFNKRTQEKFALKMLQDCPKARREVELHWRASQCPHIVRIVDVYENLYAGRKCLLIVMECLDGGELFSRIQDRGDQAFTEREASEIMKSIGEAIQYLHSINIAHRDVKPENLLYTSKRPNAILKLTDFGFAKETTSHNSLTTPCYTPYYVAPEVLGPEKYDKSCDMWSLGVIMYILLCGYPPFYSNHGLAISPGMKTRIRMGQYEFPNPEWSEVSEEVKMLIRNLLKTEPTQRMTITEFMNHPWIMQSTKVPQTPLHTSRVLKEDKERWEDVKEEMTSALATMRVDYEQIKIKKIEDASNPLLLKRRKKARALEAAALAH
Chain of Interleukin-1 receptor-associated kinase 1 (P51617 whole entry): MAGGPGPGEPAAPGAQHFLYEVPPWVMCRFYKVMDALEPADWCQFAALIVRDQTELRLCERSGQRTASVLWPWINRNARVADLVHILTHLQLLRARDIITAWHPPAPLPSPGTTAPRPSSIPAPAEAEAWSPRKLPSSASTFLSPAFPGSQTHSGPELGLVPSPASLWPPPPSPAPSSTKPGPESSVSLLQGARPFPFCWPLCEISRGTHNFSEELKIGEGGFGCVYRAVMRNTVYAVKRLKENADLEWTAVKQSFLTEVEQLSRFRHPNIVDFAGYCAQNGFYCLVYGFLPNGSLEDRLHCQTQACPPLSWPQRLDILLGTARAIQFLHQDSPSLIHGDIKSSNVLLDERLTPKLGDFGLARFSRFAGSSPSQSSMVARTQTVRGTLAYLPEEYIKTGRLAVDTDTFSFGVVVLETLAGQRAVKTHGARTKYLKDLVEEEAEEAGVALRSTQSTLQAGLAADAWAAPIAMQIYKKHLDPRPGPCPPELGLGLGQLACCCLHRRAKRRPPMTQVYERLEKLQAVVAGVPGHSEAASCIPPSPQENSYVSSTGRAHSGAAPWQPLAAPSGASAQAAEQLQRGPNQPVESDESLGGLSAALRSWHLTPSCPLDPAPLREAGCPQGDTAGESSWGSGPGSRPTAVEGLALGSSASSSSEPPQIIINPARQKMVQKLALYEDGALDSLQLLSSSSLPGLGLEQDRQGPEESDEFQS
Chain of Chromodomain-helicase-DNA-binding protein 4 (Q14839 whole entry): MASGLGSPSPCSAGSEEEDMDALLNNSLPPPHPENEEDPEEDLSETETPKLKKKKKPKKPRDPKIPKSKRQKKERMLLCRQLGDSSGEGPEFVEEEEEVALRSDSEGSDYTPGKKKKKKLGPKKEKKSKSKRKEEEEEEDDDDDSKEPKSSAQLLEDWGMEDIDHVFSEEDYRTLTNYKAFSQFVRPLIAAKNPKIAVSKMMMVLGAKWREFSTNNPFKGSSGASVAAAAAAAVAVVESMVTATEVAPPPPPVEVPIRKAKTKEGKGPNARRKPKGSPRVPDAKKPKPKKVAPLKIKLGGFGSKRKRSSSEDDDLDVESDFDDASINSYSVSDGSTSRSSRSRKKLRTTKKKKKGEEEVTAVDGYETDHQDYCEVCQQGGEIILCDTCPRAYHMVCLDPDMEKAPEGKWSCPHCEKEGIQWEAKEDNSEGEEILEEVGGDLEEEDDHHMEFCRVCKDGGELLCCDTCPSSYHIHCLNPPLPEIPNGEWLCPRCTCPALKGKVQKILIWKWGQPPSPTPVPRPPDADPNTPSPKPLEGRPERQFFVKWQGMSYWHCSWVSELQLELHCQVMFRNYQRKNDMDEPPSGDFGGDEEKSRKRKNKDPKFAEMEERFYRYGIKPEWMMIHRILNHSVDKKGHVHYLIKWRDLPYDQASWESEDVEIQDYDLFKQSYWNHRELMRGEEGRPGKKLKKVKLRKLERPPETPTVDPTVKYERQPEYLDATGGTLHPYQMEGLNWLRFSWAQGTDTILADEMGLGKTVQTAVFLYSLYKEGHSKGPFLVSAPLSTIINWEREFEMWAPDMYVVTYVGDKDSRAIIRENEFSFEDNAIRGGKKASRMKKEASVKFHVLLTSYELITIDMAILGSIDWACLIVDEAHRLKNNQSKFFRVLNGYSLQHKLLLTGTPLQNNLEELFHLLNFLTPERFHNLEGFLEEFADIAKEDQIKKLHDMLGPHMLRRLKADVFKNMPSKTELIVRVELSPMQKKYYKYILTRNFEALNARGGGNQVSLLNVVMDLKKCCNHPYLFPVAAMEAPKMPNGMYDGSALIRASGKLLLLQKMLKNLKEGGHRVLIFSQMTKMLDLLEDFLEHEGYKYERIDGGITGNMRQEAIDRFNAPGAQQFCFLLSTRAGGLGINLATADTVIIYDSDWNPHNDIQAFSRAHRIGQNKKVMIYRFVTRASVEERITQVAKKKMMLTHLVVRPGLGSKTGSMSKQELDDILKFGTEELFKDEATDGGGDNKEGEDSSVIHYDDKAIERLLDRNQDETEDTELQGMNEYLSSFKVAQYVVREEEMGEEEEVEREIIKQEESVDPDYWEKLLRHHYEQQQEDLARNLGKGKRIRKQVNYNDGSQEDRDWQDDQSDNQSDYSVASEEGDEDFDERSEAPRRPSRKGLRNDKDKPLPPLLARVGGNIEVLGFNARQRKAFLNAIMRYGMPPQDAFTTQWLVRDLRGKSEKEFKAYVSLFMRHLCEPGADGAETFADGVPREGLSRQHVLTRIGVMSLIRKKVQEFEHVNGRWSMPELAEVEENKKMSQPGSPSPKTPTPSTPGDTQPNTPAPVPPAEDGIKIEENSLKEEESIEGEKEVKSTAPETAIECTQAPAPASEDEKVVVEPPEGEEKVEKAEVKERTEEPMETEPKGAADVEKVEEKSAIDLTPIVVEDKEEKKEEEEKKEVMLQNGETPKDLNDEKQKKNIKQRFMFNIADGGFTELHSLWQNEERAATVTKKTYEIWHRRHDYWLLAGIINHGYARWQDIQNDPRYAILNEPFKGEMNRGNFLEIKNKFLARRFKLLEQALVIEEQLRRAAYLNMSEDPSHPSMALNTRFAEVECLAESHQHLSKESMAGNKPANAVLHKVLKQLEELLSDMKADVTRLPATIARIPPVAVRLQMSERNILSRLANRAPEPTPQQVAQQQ

On to `O=C(Nc1ccc(-c2ccnc(Nc3ccc(N4CCOCC4)cc3)n2)cc1)C1CCCN1` (centres undefined) [XL-019], for which the equilibrium dissociation constant (Kd) in test [1] is 0.354 µM (active); in test [2], > 30 µM (inactive); in test [3], > 30 µM (inactive); in test [4] it was > 30 µM (inactive); in test [5] it was > 30 µM (inactive); in test [6] it was 12.5 µM (active). The Kd in test [7] and in test [8] was > 30 µM (inactive) throughout.
With `CNC(=O)CN1CCC(Oc2cc3c(Nc4cccc(Cl)c4F)ncnc3cc2OC)CC1` [SAPITINIB], the Kd in test [1] is > 30 µM (inactive); in test [2], > 30 µM (inactive); in test [3], 2.2 µM (active); in test [4], > 30 µM (inactive); in test [5], > 30 µM (inactive); in test [6], > 30 µM (inactive). Moreover, the Kd in test [7] and in test [8] was > 30 µM (inactive) each time.
With `CC(=O)Nc1cccc(-n2c(=O)n(C3CC3)c(=O)c3c(Nc4ccc(I)cc4F)n(C)c(=O)c(C)c32)c1` [TRAMETINIB], the Kd in test [1], in test [2], in test [3], in test [4], in test [5] and in test [6] was > 30 µM (inactive) in each case. For the same compound, the Kd in test [7] and in test [8] was > 30 µM (inactive) throughout.
Turning to `COC(=O)N[C@@H](C)CNc1nccc(-c2cn(C(C)C)nc2-c2cc(Cl)cc(NS(C)(=O)=O)c2F)n1` [ENCORAFENIB], the Kd in test [1] is 14.7 µM (active); in test [2], > 30 µM (inactive); in test [3], > 30 µM (inactive); in test [4], > 30 µM (inactive); in test [5], > 30 µM (inactive); in test [6], > 30 µM (inactive). For the same compound, the values for the equilibrium dissociation constant (Kd) in test [7] and in test [8] were 0.247 µM (active) and > 30 µM (inactive), respectively.
Regarding `COC(=O)[C@@]1(O)C[C@H]2O[C@]1(C)n1c3ccccc3c3c4c(c5c6ccccc6n2c5c31)C(=O)NC4` [K-252A], the Kd in test [1] is > 30 µM (inactive); in test [2], > 30 µM (inactive); in test [3], > 30 µM (inactive); in test [4], > 30 µM (inactive); in test [5] it was 18.8 µM (active); in test [6], 0.227 µM (active). For the same compound, the Kd in test [7] and in test [8] was > 30 µM (inactive) each time.
For `CCS(=O)(=O)N1CC(CC#N)(n2cc(-c3ncnc4[nH]ccc34)cn2)C1` [BARICITINIB], the Kd in test [1], in test [2], in test [3], in test [4], in test [5] and in test [6] was > 30 µM (inactive) each time. Also, the Kd in test [7] and in test [8] was > 30 µM (inactive) each time.
Consider `CNS(=O)(=O)Nc1nccc(Cc2c(C)c3ccc(Oc4ncccn4)cc3oc2=O)c1F` [AVUTOMETINIB], for which the Kd in test [1], in test [2], in test [3], in test [4], in test [5] and in test [6] was > 30 µM (inactive) each time. For the same compound, the Kd in test [7] and in test [8] was > 30 µM (inactive) each time.
In the case of `COc1ccc(-c2ccc3c(N4CCOC[C@@H]4C)nc(N4CCOC[C@@H]4C)nc3n2)cc1CO` [AZD-8055], the Kd in test [1], in test [2], in test [3], in test [4], in test [5] and in test [6] was > 30 µM (inactive) in each case. The Kd in test [7] and in test [8] was > 30 µM (inactive) throughout.
In the case of `O=C(O)[C@]1(Cc2cccc(Nc3nccs3)n2)CC[C@@H](Oc2cccc(Cl)c2F)CC1` [MK-5108], the Kd in test [1] was > 30 µM (inactive); in test [2], > 30 µM (inactive); in test [3], 0.841 µM (active); in test [4], > 30 µM (inactive); in test [5] it was > 30 µM (inactive); in test [6], > 30 µM (inactive). Also, the Kd in test [7] is 1.58 µM (active); in test [8] it was > 30 µM (inactive).
In the case of `O=C1NC(=O)/C(=C/c2ccc3nccc(-c4ccncc4)c3c2)S1` [GSK-1059615], the Kd in test [1] was > 30 µM (inactive); in test [2], > 30 µM (inactive); in test [3] it was > 30 µM (inactive); in test [4], > 30 µM (inactive); in test [5], 0.002 µM (active); in test [6], > 30 µM (inactive). The Kd in test [7] and in test [8] was > 30 µM (inactive) throughout.
Take `Cc1c(F)cc(C(=O)NC2CC2)cc1-c1ccc(C(=O)NCC(C)(C)C)cn1` [LOSMAPIMOD]: the Kd in test [1] was 0.027 µM (active); in test [2] it was > 30 µM (inactive); in test [3], > 30 µM (inactive); in test [4], > 30 µM (inactive); in test [5], > 30 µM (inactive); in test [6] it was > 30 µM (inactive). In addition, the Kd in test [7] and in test [8] was > 30 µM (inactive) throughout.
With `COc1cc(CCc2cc(NC(=O)c3ccc(N4C[C@@H](C)N[C@@H](C)C4)cc3)n[nH]2)cc(OC)c1` [AZD-4547], the Kd in test [1], in test [2], in test [3], in test [4], in test [5] and in test [6] was > 30 µM (inactive) in each case. The Kd in test [7] and in test [8] was > 30 µM (inactive) throughout.
In the case of `C=CC(=O)N1CCC(Oc2cc3c(Nc4ccc(Cl)c(Cl)c4F)ncnc3cc2OC)CC1` [POZIOTINIB], the Kd in test [1], in test [2], in test [3], in test [4], in test [5] and in test [6] was > 30 µM (inactive) throughout. Moreover, the Kd in test [7] and in test [8] was > 30 µM (inactive) each time.
